Data published in patent US20240252654A1, “IMPROVED SMALL MOLECULES” (University of Dundee, priority 2020, published 2024).

Columns and labels:
[1] = test system: MV4; 11 cells; test: Correlative cell viability in cMyc-HiBiT MV4;11 cells (CellTiter-Glo); type: cell-based; details: 1 nM, after 6 h
Protocol: Monitoring cMyc Loss and Cell Viability in MV4; 11 Cells. CRISPR cMyc-HiBiT MV4; 11 cells (Promega) were plated at a density of 5×10^4 cells per well in solid, white 96-well tissue culture plates (Corning Costar #3917). Following an overnight incubation, they were treated with 1-100 nM concentration of the indicated compounds and at the plotted time points, cMyc levels were determined using luminescent measurement with NanoGlo HiBiT lytic reagent (Promega). Replicate plate of all compound treatments were prepared and at identical timepoints as the protein level measurements, cell viability was measured using Cell-Titer Glo (Promega). Plates were shaken on an orbital shaker for 10-20 min before reading luminescence on a GloMax Discover Microplate Reader (Promega).

[2] = test system: 22Rv1 cells; test: PARP cleavage immunoblot in 22Rv1 cells; type: cell-based; details: 22Rv1, 10 nM, 24 h (MT1, MZ1 up to 48 h)
Protocol: Next, the inventors assessed the functional effects of SIM1 on the viability of 22Rv1 cancer cells. […] Cells died of apoptosis as indicated by prevented cleavage of PARP upon co-treatment with QVD-OPh, a pan-caspase inhibitor, and not of necroptosis, as shown by co-treatment with Necrostatin-1 (FIG. 3d and FIG. 10a).
Degradation assays. MV4; 11 cells were seeded at 1×10^6 cells/mL of 10 cm dishes 12-24 h before treatment. 22Rv1 and HEK293 cells were seeded at 2.5-6×10^5 cells/well of 6 well plates 12-24 h before treatment. Cells were treated with test compounds with and without inhibitors as indicated or an equivalent volume of DMSO and lysed at the stated time point. For lysis, cells were washed twice in ice cold PBS (Invitrogen) then lysed in 250 μL/plate for MV4; 11 cells or 80 μL/well for 22Rv1 and HEK293 cells of ice cold lysis buffer containing 50 mM Tris hydrochloride pH 7.4, 150 mM sodium chloride, 1 mM EDTA pH 7.4, 1% v/v Triton X-100, 1×Halt™ Protease Inhibitor Cocktail (ThermoFisher). […] Protein concentration was determined by BCA assay (Pierce) and the absorbance at 562 nm measured by spectrophotometry (NanoDrop ND1000). […] Bands were detected using a ChemiDoc MP imaging system (BioRad) and quantified (Image Studio Lite, version 5.2) with normalisation to β-actin and the DMSO control per time point. […]

[3] = target: T1, HiBiT-BRD4 (Homo sapiens, UniProt O60885); test: NanoBRET target engagement, permeabilized and live cells; type: cell-based
T1 construct: endogenously HiBiT tag the N-terminal genomic loci of BRD2, BRD3, or BRD4; endogenous in cells; host or cells: HEK293 stably expressing LgBiT, CRISPR/Cas9 edited
Protocol: Cells were treated with a fluorescent BET tracer, then incubated with the indicated compounds at various concentrations to measure competitive displacement.
(§1) NanoBRET Target Engagement and Residence Time. For target engagement experiments in live and permeabilized cells, CRISPR HiBiT-BRD4 HEK293 cells stably expressing LgBiT were plated into white 96-well tissue culture plates at a density of 2×10^4 cells/well. Cells were equilibrated for 1 h with energy transfer probes and the indicated test compound prior to NanoBRET measurements. NanoBRET tracers were prepared at a working concentration of 20× in tracer dilution buffer (12.5 mM HEPES, 31.25% PEG-400, pH 7.5). NanoBRET BRD Tracer-02 was added to cells at a final concentration of 0.5 μM. To measure NanoBRET in live cells, NanoBRET NanoGlo Substrate and Extracellular NanoLuc Inhibitor (Promega) were added according to the manufacturer's recommended protocol, and filtered luminescence was measured on a GloMax Discover luminometer equipped with 450 nm BP filter (donor) and 600 nm LP filter (acceptor) using 0.3 s integration time. To measure NanoBRET in permeabilized cells, digitonin was added to the cells to a final concentration of 50 μg/mL and Extracellular NIuc inhibitor was omitted during the detection step. […] Cells were incubated in 15 mL conical tubes with caps loosened in a tissue culture incubator for 1 h. Following incubation, cells were spun at 300×g for 5 min, washed once with Opti-MEM, spun a second time at 300×g for 5 min, then resuspended with fresh Opti-MEM before plating at 2×10^4 cells/well. NanoBRET BRD Tracer-02 was added at a final concentration of 0.5 μM cells and kinetic NanoBRET measurements were collected on a GloMax Discover. NanoBRET ratios were expressed in milliBRET units and calculated according to the equation in the NanoBRET Ubiquitination, Ternary Complex and Biosensor Experiments section.

[4] = target: T1, HiBiT-BRD4; test: NanoBRET live cell residence time; type: cell-based; details: live cells
Protocol: as §1

[5] = test system: VHL and full-length BRD4 WT, N140F, or N433F; test: Kinetic NanoBRET ternary complex assay, NanoLuc-BRD4 with HaloTag-VHL; type: cell-based, human
Protocol: NanoBRET Ubiquitination, Ternary Complex, and Biosensor Experiments. For endogenous live cell BET:Ubiquitin and BET:VHL assays, CRISPR HiBiT-BRD2, HiBiT-BRD3, and HiBiT-BRD4 HEK293 cells stably expressing LgBiT were transfected with 2 μg of HaloTag-UBB or HaloTag-VHL vectors in 6-well plates using FuGENE HD (Promega). For full transient NanoBRET experiments with NanoLuc-BRD4 WT, N433F, or N140F mutants, HEK293 cells (8×10^5) were co-transfected with 0.02 μg NanoLuc-BRD4 and 2 μg of HaloTag-VHL vectors. For transient NanoBRET experiments with the BRD4 NL-BD1-BD2-HT biosensor containing either the WT tandem BD1-BD2 domain (AA 44-460) or containing the N433F mutation, HEK293 cells (8×10^5) were transfected with 0.02 μg biosensor plasmid and 2 μg carrier DNA. […] NanoBRET NanoGlo (Promega) substrate was added and BRET was measured two hours post-compound treatment using a GloMax Discover Microplate Reader (Promega). Dual filtered luminescence was collected with a 460/80 nm bandpass filter and a 610 nm long pass filter (acceptor, HaloTag NanoBRET ligand) using an integration time of 0.5 s. For all NanoBRET experiments, background subtracted NanoBRET ratios expressed in milliBRET units were calculated from the equation: […]

[6] = test system: BRD2 and BRD4; test: Dose-response degradation immunoblot in RCC4-HA-VHL cells; type: cell-based; details: 6 h, 500 nM to 6.4 pM
Protocol: Compound MN674 was designed and synthesised as another analogue of SIM1. […] MN674 was tested in the mammalian cell line RCC4-HA-VHL in a dose-response degradation assay. The assay involved immunoblots (see FIG. 21 for raw western blot data and FIG. 22 for dose-response curves) displaying 6 hour treatments of eight 5-fold serial dilutions from 500 nM to 6.4 pM of each compound. […] RCC4-HA-VHL cells were exposed to eight 5-fold serial dilutions (from 500 nM to […]) of heterotrivalent Bet-Bet-VHL PROTACs SIM1 and MN674 for 6 hour treatments, before lysates were harvested and analysed on immunoblots (FIG. 21). A Bio-Rad MP imaging system was used for fluorescence detection of BRD2 (IRDye 800CW), BRD4_long (IRDye 800CW), BRD4_short (IRDye 800CW) and house-keeping gene Tubulin (Rhodamine). The intensities of the bands were determined using ImageLab software and all BET protein intensities normalised to Tubulin in order to convert them into a percentage band intensity rationalised to the 0.1% DMSO-only control. These intensities were then plotted in GraphPad Prism for Dose-Response [Inhibition] Variable slope (four parameter) analyses to generate the curves for BRD2 (FIG. 22a) and BRD4 (FIG. 22b), to determine the DC50 values presented in Table 3 (FIG. 20). The experiment is representative of n=2 i.e. biological duplicate.

Compound: Cc1sc2c(c1C)C(c1ccc(Cl)cc1)=N[C@@H](CC(=O)NCCOCCOCCOCCOCCOCCOCCOCCNC(=O)C[C@@H]1N=C(c3ccc(Cl)cc3)c3c(sc(C)c3C)-n3c(C)nnc31)c1nnc(C)n1-2 [MT1]
- measurable cellular death [1]: not
- PARP cleavage / cell death [2]: did not cause observable PARP cleavage
- IC80 ([3]; live cell format, unit given with each value, read-out: IC80 for tracer displacement): 100 nM
- binding to endogenous HiBiT-BRD4 ([3]; permeabilized cells): near-identical binding affinities and IC50 values
- residence time on BRD4 [4]: longer residence time
- ternary complex formation [5]: not

Compound: Cc1ncsc1-c1ccc(CNC(=O)[C@@H]2C[C@@H](O)CN2C(=O)[C@@H](NC(=O)COCC(C)(COCCOCCNC(=O)C[C@@H]2N=C(c3ccc(Cl)cc3)c3c(sc(C)c3C)-n3c(C)nnc32)COCCOCCNC(=O)C[C@@H]2N=C(c3ccc(Cl)cc3)c3c(sc(C)c3C)-n3c(C)nnc32)C(C)(C)C)cc1 [MN674, N,N′-(8-((2-(((S)-1-((2S,4R)-4-hydroxy-2-((4-(4-methylthiazol-5-yl)benzyl)carbamoyl)pyrrolidin-1-yl)-3,3-dimethyl-1-oxobutan-2-yl)amino)-2-oxoethoxy)methyl)-8-methyl-3,6,10,13-tetraoxapentadecane-1,15-diyl)bis(2-((S)-4-(4-chlorophenyl)-2,3,9-trimethyl-6H-thieno[3,2-f][1,2,4]triazolo[4,3-a][1,4]diazepin-6-yl)acetamide)]
- degradation potency relative to SIM1 [6]: comparable in degradation potencies to SIM1
